Measured values taken from publication PMC5963734 (Neuron, 2018).

System: PSD-95 - α-actinin interaction
Settings: acute forebrain slices, 100 μM NMDA for 5 min; Figure 7

CN[C@H](CC(=O)O)C(=O)O [NMDA]
co-IP of CaM with PSD-95 after NMDA: strongly increased
co-IP of α-actinin with PSD-95 after NMDA: nearly abolished
